Laboratory results reported in US20030114382A1, “Glycogen synthase kinase function in endothelial cells” (priority 2001, published 2003).

How the values were obtained:
Akt phosphorylation = assay: Immunoblot of Akt phosphorylation in HUVECs; type: cell-based, human; settings: for Akt phosphorylation: HUVECs, single agent; for level of Akt phosphorylation: combined administration of PD98059 and SB203480, presence or absence of PI3K inhibition
Protocol: To examine the regulation of GSK3β phosphorylation, HUVECs were serum-starved for 15 hours, treated with the indicated agents for 1 hour, and stimulated with 10% fetal bovine serum.
Immunoblot analysis. HUVECs were washed in phosphate-buffered saline and harvested by scraping in 50 mM Tris-HCl (pH 7.2), 250 mM NaCl, 1% NP40, 0.05% SDS, 2 mM EDTA, 0.5% deoxycholic acid, 10 mM 13-glycerophosphate, 1 mM vanadate, 1 mM phenyl methyl sulfonyl fluoride (PMSF). One mini tablet of protease inhibitor cocktail (Roche, Summerville, N.J.) per 10 ml of lysis buffer, vanadate, and PMSF were added just prior to use. Protein concentration was determined with protein assay kit (Pierce, Rockford, Ill.). Protein (20 μg) was separated on SDS-polyacrylamide electrophoresis gel and transferred to a polyvinylidene difluoride membrane (Millipore, Bedford, Mass.). The membrane was blocked with T-PBS (1×PBS, 0.3% Tween-20) containing 3% dry milk and incubated with primary antibody overnight at 4° C. After three washes with T-PBS, the membrane was reblocked and incubated with secondary antibody for 1 hour at room temperature. ECL or ECL-PLUS (Amersham, Piscataway, N.J.) was used for detection. To reprobe the membrane, it was treated with Restore Western Blot stripping buffer (Pierce, Rockford, Ill.). The primary antibodies used were anti-phospho GSK-3β (Ser9) antibody (1:750 dilution, Cell Signaling Technology, Beverly, Mass.), anti-phospho Akt (Ser473) antibody (1:250 dilution, Cell Signaling Technology, Beverly, Mass.), anti-total GSK-3β antibody (1:1000 dilution, Santa Cruz, Santa Cruz, Calif.), and anti-a tubulin antibody (1:4000 dilution, Oncogene, Boston, Mass.). The secondary antibodies were anti-rabbit IgG/HRP conjugate or anti-mouse IgG/HRP conjugate (1:2500 dilution, Promega, San Luis Obispo, Calif.).

[1] = system: GSK3β phosphorylation at serine 9; assay: Immunoblot of GSK3β phosphorylation at serine 9 in HUVECs; type: cell-based, human; settings: for serum-induced phosphorylation of GSK3β: serum-starved HUVECs, 1 hour pretreatment with agent, 10% FBS 1 hour
Protocol: Cell culture and adenoviral vectors. Human umbilical vein ECs (HUVECs) were isolated as previously described (29) and cultured in EGM media (Clonetics, Walkersville, Md.). Four to six passage cells were used in this study. To examine the regulation of GSK3β phosphorylation, HUVECs were serum-starved for 15 hours, treated with the indicated agents for 1 hour, and stimulated with 10% fetal bovine serum.
Immunoblot analysis. HUVECs were washed in phosphate-buffered saline and harvested by scraping in 50 mM Tris-HCl (pH 7.2), 250 mM NaCl, 1% NP40, 0.05% SDS, 2 mM EDTA, 0.5% deoxycholic acid, 10 mM 13-glycerophosphate, 1 mM vanadate, 1 mM phenyl methyl sulfonyl fluoride (PMSF). One mini tablet of protease inhibitor cocktail (Roche, Summerville, N.J.) per 10 ml of lysis buffer, vanadate, and PMSF were added just prior to use. Protein concentration was determined with protein assay kit (Pierce, Rockford, Ill.). Protein (20 μg) was separated on SDS-polyacrylamide electrophoresis gel and transferred to a polyvinylidene difluoride membrane (Millipore, Bedford, Mass.). The membrane was blocked with T-PBS (1×PBS, 0.3% Tween-20) containing 3% dry milk and incubated with primary antibody overnight at 4° C. After three washes with T-PBS, the membrane was reblocked and incubated with secondary antibody for 1 hour at room temperature. ECL or ECL-PLUS (Amersham, Piscataway, N.J.) was used for detection. To reprobe the membrane, it was treated with Restore Western Blot stripping buffer (Pierce, Rockford, Ill.). The primary antibodies used were anti-phospho GSK-3β (Ser9) antibody (1:750 dilution, Cell Signaling Technology, Beverly, Mass.), anti-phospho Akt (Ser473) antibody (1:250 dilution, Cell Signaling Technology, Beverly, Mass.), anti-total GSK-3β antibody (1:1000 dilution, Santa Cruz, Santa Cruz, Calif.), and anti-a tubulin antibody (1:4000 dilution, Oncogene, Boston, Mass.).

## O=S(=O)(NCCNC/C=C/c1ccc(Br)cc1)c1cccc2cnccc12 [H89]
Akt phosphorylation
  Akt phosphorylation: promoted
[1]; pretreatment with H89, serum-deprived HUVECs
  induction of GSK3β phosphorylation by 8-bromo cAMP or forskolin: blocked
[1]
  serum-induced phosphorylation of GSK3β: inhibited

## C[S+]([O-])c1ccc(-c2nc(-c3ccncc3)c(-c3ccc(F)cc3)[nH]2)cc1 (stereo not drawn) [SB203480]
Akt phosphorylation
  Akt phosphorylation: not
  level of Akt phosphorylation: detectably elevated
[1]
  serum-induced phosphorylation of GSK3β: partially inhibited

## COc1cccc(-c2cc(=O)c3ccccc3o2)c1N [PD98059]
Akt phosphorylation
  Akt phosphorylation: not
  level of Akt phosphorylation: detectably elevated
[1]
  serum-induced phosphorylation of GSK3β: partially inhibited
